Data set [1] has as its system human gastric tumor SGC-7901 cells. Nature of the data set: Xenograft mouse model, SGC-7901 tumor growth. Format: in vivo, BALB/c nude mice. Conditions: tail vein; 100 μl containing 0.4 mg of AP-3 on days 0 and 14; nude mice; compared to controls. The procedure: Female BALB/c nude mice aged at 4-6 weeks-old were purchased (Tyercan, Ltd, Shenzhen) and reared in the laboratory animal facility for one week to adapt to the new environment. A total of 5×10^6 human gastric tumor SGC-7901 cells (200 μl) were inoculated into the right flank of each mouse by subcutaneous injection. When the tumor sizes reached 100-300 mm^3 (tumor volume=0.5×Length×Width^2), tumor-carrying mice in the experimental group were given (via tail vein injection) a first dose (at day zero) of 100 μl of AP3-HSA 200 mg/kg and a second dose (at day 14) of 150 mg/kg. A control group was injected with 100 μl of AP-3 containing 0.4 mg of AP-3 on days 0 and 14 in a similar fashion. 100 μl of normal saline was injected via the tail vein in a second control group on the same days. Tumor volumes were measured and mouse bodies were weighed twice a week since the first administration.

Data set [2] in a line: Body weights in U-937 xenograft study. It counts as in vivo. Conditions: U-937 xenograft SCID mice, tail vein AP3 0.5 mg/kg days 0 and 15 (FIG. 11 legend). As for the experimental part:
Female SCID mice (Tyercan, Ltd, Shenzhen) aged at 4-6 weeks-old were purchased and reared in the laboratory animal facility for one week to adapt to the new environment. A total of 5×10^6 human U-937 lymphoma tumor cells (200 μl) were inoculated into the right flank of each mouse by subcutaneous injection. […] […] 100 μl of normal saline was injected via the tail vein in a second control group on the same days. Tumor volumes were measured and mouse bodies were weighed twice a week since the first administration.

One molecule from patent US12599674B2, “Conjugates, their compositions, and their related methods” (THE ADMINISTRATORS OF THE TULANE EDUCATIONAL FUND, priority 2021, dated 2026) can be followed below.

The structures appear in SMILES notation. Entries after “also recorded” stand apart in the source; their conditions may differ.

As for `COc1cc2cc(c1Cl)N(C)C(=O)C[C@H](OC(=O)C(C)C)[C@]1(C)O[C@@H]1[C@H](C)[C@@H]1C[C@@](O)(NC(=O)O1)[C@H](OC)/C=C/C=C(\C)C2` [AP3, Ansamitocin P3], in data set [1], the “effect on growth of SGC-7901 tumors” value is on record as “only marginally effective”. The “recovery of body weights after treatment” value in data set [2] was “returned to normal about a week after the final injections”. The “effect on body weights” value in data set [2] (0.5 mg/kg) is “decreases in body weight; also recorded: weight losses”.
